This note sets out measurements from the NIST ThermoML archive (doi:10.1021/je100912t).

Structures are written as SMILES. ± gives the expanded uncertainty stated by the source.

The conditions of data set [1]: Liquid; for mass density: 298.15 K, 101.33 kPa, Pycnometric method; for vapor or sublimation pressure: Ebulliometric method (Recirculating still).
Data set [2] can be described thus: refractive index (Na D-line) (dimensionless). The conditions noted are these: 298.15 K; 101.33 kPa; Liquid; Standard Abbe refractometry.

In general, mass density refers to mass per unit of volume. Usually vapor or sublimation pressure stands for the equilibrium pressure above the liquid or solid. As usually defined, the refractive index is a measure of how strongly the sample bends light. As for `CCCO` [propan-1-ol], the mass density in data set [1] is on record as 803.62 ± 0.71 kg/m3. For the same compound, the “vapor or sublimation pressure” value in data set [1] (370.27 K) came out at 101.33 ± 1 kPa. The refractive index in data set [2] was 1.3856 ± 0.0004.
For `CCC=O` [propanal], in data set [1], the mass density is 797.21 ± 0.7 kg/m3. The “vapor or sublimation pressure” value in data set [1] (321.18 K) is 101.33 ± 1 kPa. In addition, the refractive index in data set [2] is recorded as 1.3634 ± 0.0004.
Turning to `CCC(=O)O` [propanoic acid], the mass density in data set [1] is listed as 992.86 ± 0.88 kg/m3. The “vapor or sublimation pressure” value in data set [1] (412.91 K) amounted to 101.33 ± 1 kPa. In addition, the refractive index in data set [2] was determined as 1.3858 ± 0.0004.
